Holding throughout (type): cell-based
The test system of assay [1] is primary human fibroblasts derived from IPF patients (LL29 cells), α-smooth muscle actin (αSMA). Nature of the assay: Inhibition of the fibrotic process: TGF-β1-treated primary human fibroblasts from IPF patients, αSMA staining. The following applies: Fibroblast, 96 h, 4 days; for EC50: LL29 fibroblasts from IPF patients, TGF-β1 20 ng/mL, inhibition of fibrotic process; for inhibition at 10 µM: LL29 fibroblasts, TGF-β1 treated, read-out: percent inhibition at 10 μM (given for EC50 of >10 μM). A digest of the protocol: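 Potency reflects suppression of TGF-β1-driven αSMA expression in IPF patient fibroblasts over 4 days. Values are EC50s from normalized αSMA-positive cell counts, with % inhibition at 10 μM when EC50 exceeded 10 μM.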

The test system of another assay is IL-6 (THP-1 cells). Nature of the assay: Inhibition of IL-6 in LPS-stimulated THP-1 monocytes (HTRF). As to conditions: Homo sapiens; for EC50: LPS 500 ng/mL, IL-6 by HTRF; for inhibition at 10 µM: LPS stimulated, IL-6, at 10 μM, read-out: percent inhibition at 10 μM (given for EC50 of >10 μM). In outline:
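IL-6 release was read as the HTRF 665/620 nm ratio after 22 h of 500 ng/mL LPS at 37 °C. Before stimulation, THP-1 cells kept 24 h in 1% FBS were exposed 2 h to a 10-point 1:3 compound series starting at 10 μM, in 0.1% DMSO. Four-parameter EC50s came from DMSO-normalized duplicates, with % inhibition at 10 μM reported beyond 10 μM.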
Background: Time-resolved FRET reads energy transfer from a long-lived donor to a nearby acceptor.

A further assay relates to SW480 colon cancer cells. Nature of the assay: Cell viability assay (CellTiter-Blue), four days. The following applies: Homo sapiens, 96 h; for EC50: CellTiter-Blue cell viability; for inhibition at 10 µM: read-out: percent inhibition at 10 μM (given for EC50 of >10 μM). A digest of the protocol: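 Four-day viability readout in SW480 cells: compound at 0.0045–10 μM (1:3 series), DMSO controls in eight replicates, CellTiter-Blue fluorescence after ~3 h. Values are regression-derived EC50s, or percent inhibition at 10 μM when EC50 exceeds 10 μM.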
(Resazurin is reduced to fluorescent resorufin, in cell work by metabolically active cells.)

As a reminder, the EC50 is the concentration giving half of the maximal effect. What is called inhibition is how much of the control response was suppressed. On to `Cn1cc(-c2ccc3[nH]nc(-c4nc5c(-c6cc(F)cc(CNS(C)(=O)=O)c6)ccnc5[nH]4)c3n2)cn1` [Compound 764, N-(3-Fluoro-5-(2-(5-(1-methyl-1H-pyrazol-4-yl)-1H-pyrazolo[4,3-b]pyridin-3-yl)-3H-imidazo[4,5-b]pyridin-7-yl)benzyl)methanesulfonamide], for which the EC50 (in assay [1]; in the assay with IL-6 (THP-1 cells); in the assay with SW480 colon cancer cells) was more than 10 µM each time. Besides, the results for the inhibition at 10 µM (in assay [1]; in the assay on IL-6 (THP-1 cells); in the assay with SW480 colon cancer cells) were 26.8%, 24.2% and 0%, respectively.
On to `CS(=O)(=O)NCc1cc(F)cc(-c2ccnc3[nH]c(-c4n[nH]c5ccc(-c6cncc(NC(=O)CC7CCNCC7)c6)nc45)nc23)c1` [Compound 769, N-(5-(3-(7-(3-Fluoro-5-(methylsulfonamidomethyl)phenyl)-3H-imidazo[4,5-b]pyridin-2-yl)-1H-pyrazolo[4,3-b]pyridin-5-yl)pyridin-3-yl)-2-(piperidin-4-yl)acetamide], for which the EC50 in assay [1] was 4.46 µM; in the assay with IL-6 (THP-1 cells) it was 0.036 µM; with SW480 colon cancer cells, more than 10 µM. In the assay on SW480 colon cancer cells, the inhibition at 10 µM is 8.5%.
`CN(C)CCNc1cc(F)cc(-c2ccnc3[nH]c(-c4n[nH]c5ccc(-c6cncc(OCCN7CCCC7)c6)nc45)nc23)c1` [Compound 786, N^1-(3-Fluoro-5-(2-(5-(5-(2-(pyrrolidin-1-yl)ethoxy)pyridin-3-yl)-1H-pyrazolo[4,3-b]pyridin-3-yl)-3H-imidazo[4,5-b]pyridin-7-yl)phenyl)-N^2,N^2-dimethylethane-1,2-diamine]: the EC50 in assay [1] is 2.9 µM; in the assay with IL-6 (THP-1 cells), more than 10 µM; with SW480 colon cancer cells it was 9.87 µM. For the same compound, the inhibition at 10 µM in the assay on IL-6 (THP-1 cells) was 0%.
For `CN(C)CCNc1cc(F)cc(-c2ccnc3[nH]c(-c4n[nH]c5ccc(-c6cnccn6)nc45)nc23)c1` [Compound 792, N^1-(3-Fluoro-5-(2-(5-(pyrazin-2-yl)-1H-pyrazolo[4,3-b]pyridin-3-yl)-3H-imidazo[4,5-b]pyridin-7-yl)phenyl)-N^2,N^2-dimethylethane-1,2-diamine] the same measures were 2.24 µM, more than 10 µM, 4.37 µM and 23.3%.
On to `COc1cccc(-c2ccnc3[nH]c(-c4n[nH]c5ccc(-c6cncc(OC7CCNCC7)c6)nc45)nc23)c1` [Compound 1025, 3-(7-(3-Methoxyphenyl)-3H-imidazo[4,5-b]pyridin-2-yl)-5-(5-(piperidin-4-yloxy)pyridin-3-yl)-1H-pyrazolo[4,3-b]pyridine], for which the EC50 was 2.91 µM in assay [1], more than 10 µM with IL-6 (THP-1 cells) and more than 10 µM with SW480 colon cancer cells. Also, the results for the inhibition at 10 µM in the assay with IL-6 (THP-1 cells) and in the assay with SW480 colon cancer cells were 26.5% and 15.8%, respectively.
Consider `COc1cccc(-c2ccnc3[nH]c(-c4n[nH]c5ccc(-c6cncc(O)c6)nc45)nc23)c1` [Compound 1030, 5-(3-(7-(3-Methoxyphenyl)-3H-imidazo[4,5-b]pyridin-2-yl)-1H-pyrazolo [4,3-b]pyridin-5-yl)pyridin-3-ol], for which the EC50 (in assay [1]; in the assay with IL-6 (THP-1 cells); in the assay on SW480 colon cancer cells) was more than 10 µM each time. Also, the inhibition at 10 µM in assay [1] amounted to 48%; in the assay on IL-6 (THP-1 cells), 40.9%; in the assay with SW480 colon cancer cells, 3%.
As for `c1cc(-c2ccc3c(c2)OCO3)c2nc(-c3n[nH]c4ccc(C5CCNCC5)nc34)[nH]c2n1` [Compound 1108, 3-(7-(Benzo[d][1,3]dioxol-5-yl)-3H-imidazo[4,5-b]pyridin-2-yl)-5-(piperidin-4-yl)-1H-pyrazolo[4,3-b]pyridine], the concentration for a half-maximal effect (EC50) (in assay [1]; with IL-6 (THP-1 cells); in the assay on SW480 colon cancer cells) was more than 10 µM throughout. Moreover, the inhibition at 10 µM in assay [1] was found to be 0%; with IL-6 (THP-1 cells), 30.1%; in the assay with SW480 colon cancer cells, 0%.

The record behind these values is US10329309B2, “3-(3H-imidazo[4,5-B]pyridin-2-yl)-1H-pyrazolo[4,3-B]pyridines and therapeutic uses thereof” (Samumed, LLC, priority 2015, dated 2019).
